Tests used:
Assay type in all cases: ADME
Design in all cases: dose 2 uM
Conditions in all cases: 2 µM
[1] = target: T1, 3-oxo-5-alpha-steroid 4-dehydrogenase (Bacteroides thetaiotaomicron, UniProt Q8A618); assay: (§1) The drug is tested on Bacteroides thetaiotaomicron strain: VPI-5482 for biotransformation. The drug concentrations were measured before and after a 12-h incubation by liquid-chromatography-coupled mass spectrometry (LC–MS)
T1 sequence (Q8A618 whole entry): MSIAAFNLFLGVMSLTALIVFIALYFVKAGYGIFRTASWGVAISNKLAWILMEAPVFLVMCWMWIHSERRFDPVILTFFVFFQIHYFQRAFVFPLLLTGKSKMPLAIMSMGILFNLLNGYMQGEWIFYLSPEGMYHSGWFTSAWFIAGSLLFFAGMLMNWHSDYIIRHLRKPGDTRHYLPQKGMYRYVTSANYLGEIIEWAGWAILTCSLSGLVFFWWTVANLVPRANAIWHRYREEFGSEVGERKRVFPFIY

Acyltransferase = target: T2, Acyltransferase (Bacteroides thetaiotaomicron, UniProt Q8A575); assay: as §1
T2 sequence (Q8A575 whole entry): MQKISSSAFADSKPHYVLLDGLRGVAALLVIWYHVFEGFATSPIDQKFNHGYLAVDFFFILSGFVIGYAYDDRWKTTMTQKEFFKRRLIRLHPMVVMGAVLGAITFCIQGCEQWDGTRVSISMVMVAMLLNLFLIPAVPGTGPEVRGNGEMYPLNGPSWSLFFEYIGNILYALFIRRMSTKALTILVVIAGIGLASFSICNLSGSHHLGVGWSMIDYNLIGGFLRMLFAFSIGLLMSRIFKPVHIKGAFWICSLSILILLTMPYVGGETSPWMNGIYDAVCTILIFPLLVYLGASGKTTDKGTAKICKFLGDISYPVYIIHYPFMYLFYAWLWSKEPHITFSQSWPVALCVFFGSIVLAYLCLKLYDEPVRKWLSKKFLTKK

Endoglucanase E (EGE) = target: T3, Endoglucanase E (EGE) (Bacteroides thetaiotaomicron, UniProt Q8AAL9); assay: as §1
T3 sequence (Q8AAL9 whole entry): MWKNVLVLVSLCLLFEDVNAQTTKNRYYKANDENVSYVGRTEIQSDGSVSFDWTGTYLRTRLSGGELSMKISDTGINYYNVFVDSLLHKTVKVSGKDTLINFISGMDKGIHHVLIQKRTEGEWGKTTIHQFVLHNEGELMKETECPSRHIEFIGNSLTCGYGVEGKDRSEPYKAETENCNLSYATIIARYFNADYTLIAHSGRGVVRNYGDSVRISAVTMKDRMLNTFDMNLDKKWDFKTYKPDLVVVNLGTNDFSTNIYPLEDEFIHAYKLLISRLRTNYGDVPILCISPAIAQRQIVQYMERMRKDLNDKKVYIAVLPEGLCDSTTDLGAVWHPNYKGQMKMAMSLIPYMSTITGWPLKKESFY

[2] = target: T4, Lipolytic enzyme, G-D-S-L family (Bacteroides thetaiotaomicron, UniProt Q8A0C5); assay: as §1
T4 sequence (Q8A0C5 whole entry): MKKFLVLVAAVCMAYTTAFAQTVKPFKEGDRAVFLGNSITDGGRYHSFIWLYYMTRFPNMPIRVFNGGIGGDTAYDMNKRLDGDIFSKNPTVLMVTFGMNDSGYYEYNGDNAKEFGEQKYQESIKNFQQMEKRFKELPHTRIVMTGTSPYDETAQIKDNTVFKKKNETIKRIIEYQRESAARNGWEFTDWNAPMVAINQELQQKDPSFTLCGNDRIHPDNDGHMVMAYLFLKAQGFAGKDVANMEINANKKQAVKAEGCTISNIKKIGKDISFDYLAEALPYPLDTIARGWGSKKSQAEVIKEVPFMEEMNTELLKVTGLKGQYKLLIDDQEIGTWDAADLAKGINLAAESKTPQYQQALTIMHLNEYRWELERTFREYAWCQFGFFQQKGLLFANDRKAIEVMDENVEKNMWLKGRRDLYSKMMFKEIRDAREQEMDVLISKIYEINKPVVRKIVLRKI

Lipoprotein = target: T5, Lipoprotein (Bacteroides thetaiotaomicron, UniProt Q8A343); assay: as §1
T5 sequence (Q8A343 whole entry): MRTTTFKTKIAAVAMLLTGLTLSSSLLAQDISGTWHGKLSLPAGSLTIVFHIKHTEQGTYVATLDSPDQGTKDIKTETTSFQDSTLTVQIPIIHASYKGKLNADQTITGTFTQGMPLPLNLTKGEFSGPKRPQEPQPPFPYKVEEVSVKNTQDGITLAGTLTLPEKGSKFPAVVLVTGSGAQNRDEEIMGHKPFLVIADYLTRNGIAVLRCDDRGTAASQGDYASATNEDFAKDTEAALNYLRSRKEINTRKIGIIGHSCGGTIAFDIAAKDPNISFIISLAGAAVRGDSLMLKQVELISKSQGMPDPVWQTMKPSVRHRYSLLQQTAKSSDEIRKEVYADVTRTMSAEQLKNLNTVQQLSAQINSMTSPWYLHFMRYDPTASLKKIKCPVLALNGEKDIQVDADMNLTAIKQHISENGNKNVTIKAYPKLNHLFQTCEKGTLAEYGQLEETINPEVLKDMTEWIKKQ

[3] = target: T6, Sialic acid-specific acetylesterase (Bacteroides thetaiotaomicron, UniProt Q8A331); assay: as §1
T6 sequence (Q8A331 whole entry): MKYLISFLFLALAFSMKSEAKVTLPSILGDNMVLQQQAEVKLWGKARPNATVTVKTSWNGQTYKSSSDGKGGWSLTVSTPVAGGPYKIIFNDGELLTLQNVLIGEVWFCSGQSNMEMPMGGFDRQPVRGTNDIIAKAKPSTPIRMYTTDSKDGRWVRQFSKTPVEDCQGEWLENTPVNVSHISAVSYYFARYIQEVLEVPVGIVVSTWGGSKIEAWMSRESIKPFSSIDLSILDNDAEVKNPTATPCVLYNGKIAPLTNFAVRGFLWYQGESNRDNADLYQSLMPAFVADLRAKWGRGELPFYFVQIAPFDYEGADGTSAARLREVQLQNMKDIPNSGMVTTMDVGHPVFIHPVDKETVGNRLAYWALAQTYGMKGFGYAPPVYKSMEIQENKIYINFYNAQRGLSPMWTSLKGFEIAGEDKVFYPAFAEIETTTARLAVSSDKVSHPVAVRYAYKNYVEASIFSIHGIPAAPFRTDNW

Xylanase = target: T7, Xylanase (Bacteroides thetaiotaomicron, UniProt Q8A8H5); assay: as §1
T7 sequence (Q8A8H5 whole entry): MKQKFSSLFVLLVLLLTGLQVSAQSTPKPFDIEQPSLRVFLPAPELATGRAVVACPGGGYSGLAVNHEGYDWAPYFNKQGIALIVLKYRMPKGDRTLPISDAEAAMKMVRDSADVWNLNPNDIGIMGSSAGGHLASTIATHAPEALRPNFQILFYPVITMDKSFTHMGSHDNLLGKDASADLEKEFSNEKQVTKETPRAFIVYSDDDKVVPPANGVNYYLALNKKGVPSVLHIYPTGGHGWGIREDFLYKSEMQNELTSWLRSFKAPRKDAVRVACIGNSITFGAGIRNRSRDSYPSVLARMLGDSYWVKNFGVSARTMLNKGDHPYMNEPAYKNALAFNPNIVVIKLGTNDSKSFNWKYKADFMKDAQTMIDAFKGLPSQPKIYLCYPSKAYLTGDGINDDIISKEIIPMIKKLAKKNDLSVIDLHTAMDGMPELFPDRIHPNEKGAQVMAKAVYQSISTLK

Measured: Bacterial Biotransformation

C[C@]12CCC(=O)C=C1[C@@H]1C[C@@H]1[C@H]1[C@@H]3[C@@H]4C[C@@H]4[C@@]4(CCC(=O)O4)[C@@]3(C)CC[C@@H]12 [DROSPIRENONE]
Compound NOT metabolized: [1] | Acyltransferase | Endoglucanase E (EGE) | [2] | Lipoprotein | [3] | Xylanase

— ChEMBL document CHEMBL5303573, “Mapping human microbiome drug metabolism by gut bacteria and their genes” (Nature, 2019)
